Assay results published in US8618289B2 (Ambit Biosciences Corporation, priority 2008, dated 2013).
pEC50, pIC50, pKd: −log10 of the molar value. Structures can show the parent of a compound that is named as a salt.

Key:
[1] = system: MEK1 phosphorylation in the A375 human melanoma cell line; assay: cells; details: A-375, read-out: pMEK IC50
A375 cells = assay: cells; details: Homo sapiens, A-375, read-out: A375 Viability EC50
RAF kinases [2] = molecular target: RAF kinases (Homo sapiens, UniProt P04049); assay: biochemical
RAF kinases [3] = molecular target: RAF kinases (Homo sapiens, UniProt P15056); assay: biochemical
Sequence of RAF kinases (Homo sapiens, UniProt P15056) (P15056 whole entry): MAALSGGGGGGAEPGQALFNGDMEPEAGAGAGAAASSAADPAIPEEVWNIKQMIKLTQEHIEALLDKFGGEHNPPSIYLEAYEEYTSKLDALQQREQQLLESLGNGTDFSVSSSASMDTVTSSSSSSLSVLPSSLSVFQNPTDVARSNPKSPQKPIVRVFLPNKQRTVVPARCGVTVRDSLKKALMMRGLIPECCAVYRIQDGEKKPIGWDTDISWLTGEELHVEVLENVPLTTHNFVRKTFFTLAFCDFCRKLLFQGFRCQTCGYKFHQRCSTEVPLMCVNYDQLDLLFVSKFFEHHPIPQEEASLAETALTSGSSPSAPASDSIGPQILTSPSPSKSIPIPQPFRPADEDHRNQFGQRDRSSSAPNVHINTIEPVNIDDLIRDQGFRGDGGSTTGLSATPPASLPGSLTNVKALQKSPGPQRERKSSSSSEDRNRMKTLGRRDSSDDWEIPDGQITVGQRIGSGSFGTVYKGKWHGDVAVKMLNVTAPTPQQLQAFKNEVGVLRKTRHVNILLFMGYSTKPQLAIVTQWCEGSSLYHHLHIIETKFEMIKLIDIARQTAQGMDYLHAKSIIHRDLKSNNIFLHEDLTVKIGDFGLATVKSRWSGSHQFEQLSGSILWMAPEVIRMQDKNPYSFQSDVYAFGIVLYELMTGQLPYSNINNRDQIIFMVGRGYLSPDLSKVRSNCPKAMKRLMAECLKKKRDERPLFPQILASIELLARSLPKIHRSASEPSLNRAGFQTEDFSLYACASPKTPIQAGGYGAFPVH

Sequence of RAF kinases (Homo sapiens, UniProt P04049) (P04049 whole entry): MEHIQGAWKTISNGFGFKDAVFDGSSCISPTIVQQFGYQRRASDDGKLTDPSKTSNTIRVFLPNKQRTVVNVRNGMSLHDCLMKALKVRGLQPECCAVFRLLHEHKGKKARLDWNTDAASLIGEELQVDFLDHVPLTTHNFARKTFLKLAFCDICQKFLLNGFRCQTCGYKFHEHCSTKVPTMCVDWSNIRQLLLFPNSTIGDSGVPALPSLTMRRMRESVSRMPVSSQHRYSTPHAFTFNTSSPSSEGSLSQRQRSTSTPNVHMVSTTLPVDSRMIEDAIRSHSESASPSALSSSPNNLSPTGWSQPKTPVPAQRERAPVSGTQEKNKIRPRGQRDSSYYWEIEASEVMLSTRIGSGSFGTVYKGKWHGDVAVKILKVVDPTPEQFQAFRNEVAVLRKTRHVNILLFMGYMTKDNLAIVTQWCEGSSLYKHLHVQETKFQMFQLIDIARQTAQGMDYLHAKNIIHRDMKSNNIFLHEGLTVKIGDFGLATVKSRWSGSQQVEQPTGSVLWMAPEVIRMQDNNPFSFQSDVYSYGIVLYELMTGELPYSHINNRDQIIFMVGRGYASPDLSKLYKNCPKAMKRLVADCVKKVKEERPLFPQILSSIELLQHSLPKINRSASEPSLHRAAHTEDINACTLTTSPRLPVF

Compound | pIC50 [1] | pEC50 (A375 cells) | pKd (RAF kinases [2]) | pKd (RAF kinases [3])
COc1cc2c(Oc3cccc(NC(=O)Nc4cc(C(C)(C)C)on4)c3)ncnc2cc1OCCN1CCN(C)CC1 [Ex 36, 1-(5-tert-butylisoxazol-3-yl)-3-(3-(6-methoxy-7-(2-(4-methylpiperazin-1-yl)ethoxy)quinazolin-4-yloxy)phenyl)urea] | > 6.60 | 6.30 to 6.60 | 6.30 to 6.60 | 6.30 to 6.60
COc1cc2c(Oc3cccc(NC(=O)Nc4cc(C(C)(C)C)on4)c3)ncnc2cc1O [Ex 95, 1-(5-tert-butylisoxazol-3-yl)-3-(3-(7-hydroxy-6-methoxyquinazolin-4-yloxy)phenyl)urea] | > 6.60 | > 6.60 | 6.30 to 6.60 | 6.00 to 6.30
COCCOc1cc2ncnc(Oc3cccc(NC(=O)Nc4cc(C(C)(C)C)on4)c3)c2cc1OCCOC [Ex 12, 1-{3-[6,7-bis(2-methoxyethoxy)quinazolin-4-yloxy]phenyl}-3-(5-tert-butylisoxazol-3-yl)urea hydrochloride] | > 6.60 | 6.30 to 6.60 | 6.30 to 6.60 | 6.00 to 6.30
COCCOc1cc2ncnc(Oc3cccc(NC(=O)Nc4cc(C(C)(C)C)no4)c3)c2cc1OC [Ex 202, 1-(3-tert-butylisoxazol-5-yl)-3-(3-(6-methoxy-7-(2-methoxyethoxy)quinazolin-4-yloxy)phenyl)urea] | > 6.60 | < 6.00 | 6.30 to 6.60 | 6.30 to 6.60
COc1cc2c(Oc3cccc(NC(=O)Nc4cc(C(C)(C)C)on4)c3)ncnc2cc1OCCN1CCN(CCO)CC1 [Ex 38, 1-(5-tert-butylisoxazol-3-yl)-3-(3-(7-(2-(4-(2-hydroxyethyl)piperazin-1-yl)ethoxy)-6-methoxyquinazolin-4-yloxy)phenyl)urea] | > 6.60 | 6.30 to 6.60 | 6.30 to 6.60 | 6.30 to 6.60
COc1cc2c(Oc3cccc(NC(=O)Nc4cc(C(C)(C)C)on4)c3)ncnc2cc1OCCCN1CCN(S(C)(=O)=O)CC1 [Ex 32, 1-(5-tert-butylisoxazol-3-yl)-3-(3-(6-methoxy-7-(3-(4-(methylsulfonyl)piperazin-1-yl)propoxy)quinazolin-4-yloxy)phenyl)urea] | > 6.60 | 6.30 to 6.60 | 6.30 to 6.60 | 6.00 to 6.30
COc1cc2ncnc(Oc3cccc(NC(=O)Nc4ccc(Cl)c(C(F)(F)F)c4)c3)c2cc1OC [Ex 176, 1-(4-chloro-3-(trifluoromethyl)phenyl)-3-(3-(6,7-dimethoxyquinazolin-4-yloxy)phenyl)urea] | 6.30 to 6.60 | < 6.00 | 6.30 to 6.60 | 6.00 to 6.30
COc1cc2c(Sc3cccc(NC(=O)Nc4cc(C(C)(C)C)on4)c3)ncnc2cc1OCCN1CCCCC1 [Ex 80, 1-(5-tert-butylisoxazol-3-yl)-3-(3-(6-methoxy-7-(2-(piperidin-1-yl)ethoxy)quinazolin-4-ylthio)phenyl)urea] | 6.30 to 6.60 | < 6.00 | 6.30 to 6.60 | 6.30 to 6.60
COc1cc2ncnc(Sc3cccc(NC(=O)Nc4cc(C(C)(C)C)on4)c3)c2cc1OCCCN1CCCCC1 [Ex 57, 1-(5-tert-butylisoxazol-3-yl)-3-(3-(7-methoxy-6-(3-(piperidin-1-yl)propoxy)quinazolin-4-ylthio)phenyl) urea] | > 6.60 | < 6.00 | 6.00 to 6.30 | 6.00 to 6.30
COc1cc2ncnc(Oc3cccc(NC(=O)Nc4cc(C(C)(C)C)on4)c3)c2cc1OCCN1CCOCC1 [Ex 20, 1-(5-tert-butylisoxazol-3-yl)-3-(3-(7-methoxy-6-(2-morpholinoethoxy)quinazolin-4-yloxy)phenyl)urea] | > 6.60 | > 6.60 | 6.30 to 6.60 | 6.30 to 6.60
COc1cc2c(Sc3cccc(NC(=O)Nc4cc(C(C)(C)C)on4)c3)ncnc2cc1OCCN1CCN(C)CC1 [Ex 83, 1-(5-tert-butylisoxazol-3-yl)-3-(3-(6-methoxy-7-(2-(4-methylpiperazin-1-yl)ethoxy)quinazolin-4-ylthio)phenyl)urea] | > 6.60 | < 6.00 | 6.30 to 6.60 | 6.30 to 6.60
COc1cc2c(Sc3cccc(NC(=O)Nc4cc(C(C)(C)C)on4)c3)ncnc2cc1OCCCN1CCN(C)CC1 [Ex 73, 1-(5-tert-butylisoxazol-3-yl)-3-(3-(6-methoxy-7-(3-(4-methylpiperazin-1-yl)propoxy)quinazolin-4-ylthio)phenyl)urea] | > 6.60 | 6.00 to 6.30 | 6.30 to 6.60 | 6.30 to 6.60
COc1cc2ncnc(Oc3cccc(NC(=O)Nc4cc(C(C)(C)C)on4)c3)c2cc1OC[C@H](O)CN1CCN(C)CC1 [Ex 112, (R)-1-(5-tert-butylisoxazol-3-yl)-3-(3-(6-(2-hydroxy-3-(4-methylpiperazin-1-yl)propoxy)-7-methoxyquinazolin-4-yloxy)phenyl)urea] | 6.30 to 6.60 | 6.00 to 6.30 | 6.30 to 6.60 | 6.00 to 6.30
COc1cc2ncnc(Oc3cccc(NC(=O)Nc4cc(C(C)(C)C)on4)c3)c2cc1OCCCN1CCC(CO)CC1 [Ex 24, 1-(5-tert-butylisoxazol-3-yl)-3-(3-(6-(3-(4-(hydroxymethyl)piperidin-1-yl)propoxy)-7-methoxyquinazolin-4-yloxy)phenyl)urea] | > 6.60 | 6.00 to 6.30 | 6.00 to 6.30 | 6.00 to 6.30
COc1cc2ncnc(Sc3cccc(NC(=O)Nc4cc(C(C)(C)C)on4)c3)c2cc1OCCN1CCN(C)CC1 [Ex 67, 1-(5-tert-butylisoxazol-3-yl)-3-(3-(7-methoxy-6-(2-(4-methylpiperazin-1-yl)ethoxy)quinazolin-4-ylthio)phenyl)urea] | > 6.60 | < 6.00 | 6.30 to 6.60 | 6.30 to 6.60
COc1cc2ncnc(Oc3cccc(NC(=O)Nc4cc(C(F)(F)F)ncn4)c3)c2cc1OC [Ex 146, 1-(3-(6,7-dimethoxyquinazolin-4-yloxy)phenyl)-3-(6-(trifluoromethyl)pyrimidin-4-yl)urea] | < 6.00 | < 6.00 | 6.30 to 6.60 | 6.30 to 6.60
CCOc1cccc(NC(=O)Nc2cccc(Oc3ncnc4cc(OC)c(OC)cc34)c2)c1 [Ex 179, 1-(3-(6,7-dimethoxyquinazolin-4-yloxy)phenyl)-3-(3-ethoxyphenyl)urea] | < 6.00 | < 6.00 | 6.30 to 6.60 | 6.00 to 6.30
CC(C)(C)c1cc(NC(=O)Nc2cccc(Oc3ncnc4ccc(-c5ccc(CNCCS(C)(=O)=O)o5)cc34)c2)no1 [Ex 92, 1-(5-tert-butylisoxazol-3-yl)-3-{3-[6-(5-{[2-(methylsulfonyl)ethylamino]methyl}furan-2-yl)quinazolin-4-yloxy]phenyl}urea] | > 6.60 | > 6.60 | 6.30 to 6.60 | 6.00 to 6.30
COCCOc1cc2ncnc(Sc3cccc(NC(=O)Nc4cc(C(C)(C)C)on4)c3)c2cc1OCCOC [Ex 53, 1-{3-[6,7-bis(2-methoxyethoxy)quinazolin-4-ylthio]phenyl}-3-(5-tert-butylisoxazol-3-yl)urea hydrochloride] | > 6.60 | 6.00 to 6.30 | 6.30 to 6.60 | 6.00 to 6.30
COc1cc2c(Oc3cccc(NC(=O)Nc4cc(C(C)(C)C)on4)c3)ncnc2cc1OCCN1CCC(CO)CC1 [Ex 37, 1-(5-tert-butyl-isoxazol-3-yl)-3-(3-{7-[2-(4-hydroxymethyl-piperidin-1-yl)-ethoxy]-6-methoxy-quinazolin-4-yloxy}-phenyl)-urea] | > 6.60 | 6.30 to 6.60 | 6.30 to 6.60 | 6.30 to 6.60
COc1cc2ncnc(Oc3cccc(NC(=O)Nc4cc(C(C)(C)C)on4)c3)c2cc1OCCCN1CCN(C)CC1 [Ex 21, 1-(5-tert-butylisoxazol-3-yl)-3-(3-(7-methoxy-6-(3-(4-methylpiperazin-1-yl)propoxy)quinazolin-4-yloxy)phenyl)urea] | > 6.60 | 6.30 to 6.60 | 6.30 to 6.60 | 6.30 to 6.60
COc1cc2ncnc(Sc3cccc(NC(=O)Nc4cc(C(C)(CF)CF)no4)c3)c2cc1OC [Ex 160, 1-[3-(1,3-difluoro-2-methylpropan-2-yl)isoxazol-5-yl]-3-[3-(6,7-dimethoxyquinazolin-4-ylthio)phenyl]urea] | > 6.60 | < 6.00 | 6.30 to 6.60 | 6.00 to 6.30
COc1cc2c(Oc3cccc(NC(=O)Nc4cc(C(C)(C)C)on4)c3)ncnc2cc1OCCN1CCOCC1 [Ex 35, 1-(5-tert-butylisoxazol-3-yl)-3-(3-(6-methoxy-7-(2-morpholinoethoxy)quinazolin-4-yloxy)phenyl)urea] | > 6.60 | 6.00 to 6.30 | 6.30 to 6.60 | 6.30 to 6.60
CCOc1cc2c(Sc3cccc(NC(=O)Nc4cc(C(C)(C)C)on4)c3)ncnc2cc1OC [Ex 56, 1-(5-tert-butylisoxazol-3-yl)-3-(3-(6-ethoxy-7-methoxyquinazolin-4-ylthio)phenyl)urea] | > 6.60 | > 6.60 | 6.30 to 6.60 | 6.00 to 6.30
COc1cc2ncnc(Oc3cccc(NC(=O)Nc4cc(C(C)(C)C)on4)c3)c2cc1OCCN1CCS(=O)(=O)CC1 [Ex 91, 1-(5-tert-butyl-isoxazol-3-yl)-3-(3-{6-[2-(1,1-dioxo-thiomorpholin-4-yl)-ethoxy]-7-methoxy-quinazolin-4-yloxy}-phenyl)-urea] | > 6.60 | > 6.60 | 6.30 to 6.60 | 6.30 to 6.60
COc1cc2ncnc(Oc3cccc(NC(=O)Nc4cc(C(C)(C)C)on4)c3)c2cc1OCCN1CCN(C)CC1 [Ex 18, 1-(5-tert-butylisoxazol-3-yl)-3-(3-(7-methoxy-6-(2-(4-methylpiperazin-1-yl)ethoxy)quinazolin-4-yloxy)phenyl)urea] | > 6.60 | 6.30 to 6.60 | 6.00 to 6.30 | 6.30 to 6.60
